Reference: patent US20260262643A1, “HERBICIDAL BENZOXAZINES” (FMC CORPORATION, priority 2022, published 2026)
Where two headings read alike, the source gives them in different places.

What was measured:
wheat [1] = experiment: Test A postemergence; assay type: in vivo, Triticum aestivum; settings: Triticum aestivum, post-emergence, 240 h, postemergence, 10 days, 0 to 100 scale (0 no effect, 100 complete control); for plant injury at 125 g/ha: 125 g ai/ha, read-out: Wheat plant response rating; for plant injury at 500 g/ha: 500 g ai/ha, visual injury, read-out: Plant response rating, Wheat
Summary of the method: (§1)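 Plants were grown in loam and sand and treated preemergence or postemergence (one- to two-leaf stage, 2–10 cm) with compound in solvent plus surfactant. Response was scored against untreated controls after 10 greenhouse days, where 0 means no effect and 100 complete control.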

soybean = experiment: Test A postemergence; assay type: in vivo, Glycine max; settings: Glycine max, post-emergence, 240 h, postemergence, 10 days, 0 to 100 scale (0 no effect, 100 complete control); for plant injury at 125 g/ha: 125 g ai/ha, read-out: Soybean plant response rating; for plant injury at 500 g/ha: 500 g ai/ha, visual injury, read-out: Plant response rating, Soybean
Summary of the method: as §1

ryegrass, Italian = experiment: Test A preemergence; assay type: in vivo, Lolium multiflorum; settings: Lolium multiflorum, pre-emergence, 240 h, read-out: Plant response rating, Ryegrass, Italian; for pest or weed control at 125 g/ha: 125 g ai/ha; for pest or weed control at 500 g/ha: 500 g ai/ha
Summary of the method: as §1

corn = experiment: Test A preemergence; assay type: in vivo, Zea mays; settings: Zea mays, pre-emergence, 240 h; for Corn plant response rating (crop injury, 0 = no effect, 100 = complete kill) at 125 g/ha: 125 g ai/ha; for Corn plant response rating (crop injury, 0 = no effect, 100 = complete kill) at 500 g/ha: 500 g ai/ha
Summary of the method: as §1

pigweed, palmer = experiment: Test A preemergence; assay type: in vivo, Amaranthus palmeri; settings: Amaranthus palmeri, pre-emergence, 240 h, read-out: Plant response rating, Pigweed, Palmer; for pest or weed control at 125 g/ha: 125 g ai/ha; for pest or weed control at 500 g/ha: 500 g ai/ha
Summary of the method: as §1

kochia = experiment: Test A preemergence; assay type: in vivo, Bassia scoparia; settings: Bassia scoparia, pre-emergence, 240 h, read-out: Plant response rating, Kochia; for pest or weed control at 125 g/ha: 125 g ai/ha; for pest or weed control at 500 g/ha: 500 g ai/ha
Summary of the method: as §1

ragweed = experiment: Test A postemergence; assay type: in vivo, Ambrosia artemisiifolia; settings: Ambrosia artemisiifolia, post-emergence, 240 h, postemergence, 10 days, 0 to 100 scale (0 no effect, 100 complete control); for pest or weed control at 125 g/ha: 125 g ai/ha, read-out: Ragweed plant response rating; for pest or weed control at 500 g/ha: 500 g ai/ha, visual injury, read-out: Plant response rating, Ragweed
Summary of the method: as §1

ducksalad = experiment: Test B flooded paddy test; assay type: in vivo, Heteranthera limosa; settings: Heteranthera limosa, 312 h, 250 g ai/ha, Flood, 13 days, 0 to 100 scale (0 no effect, 100 complete control); read-out: Plant response rating, Ducksalad
Summary of the method: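 Application into standing water (3 cm above soil) at the two-leaf stage; flood depth held constant. Evaluation: day 13, visual comparison with controls, 0 = no injury, 100 = complete control.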

foxtail, giant = experiment: Test A preemergence; assay type: in vivo, Setaria faberi; settings: Setaria faberi, pre-emergence, 240 h, read-out: Plant response rating, Foxtail, Giant; for pest or weed control at 125 g/ha: 125 g ai/ha; for pest or weed control at 500 g/ha: 500 g ai/ha
Summary of the method: as §1

oat, wild [2] = experiment: Test A preemergence; assay type: in vivo, Avena fatua; settings: Avena fatua, pre-emergence, 240 h, read-out: Plant response rating, Oat, Wild; for pest or weed control at 125 g/ha: 125 g ai/ha; for pest or weed control at 500 g/ha: 500 g ai/ha
Summary of the method: as §1

blackgrass = experiment: Test A postemergence; assay type: in vivo, Alopecurus myosuroides; settings: Alopecurus myosuroides, post-emergence, 240 h, postemergence, 10 days, 0 to 100 scale (0 no effect, 100 complete control); for pest or weed control at 125 g/ha: 125 g ai/ha, read-out: Blackgrass plant response rating; for pest or weed control at 500 g/ha: 500 g ai/ha, visual injury, read-out: Plant response rating, Blackgrass
Summary of the method: as §1

wheat [3] = experiment: Test A preemergence; assay type: in vivo, Triticum aestivum; settings: Triticum aestivum, pre-emergence, 240 h, read-out: Plant response rating, Wheat; for plant injury at 125 g/ha: 125 g ai/ha; for plant injury at 500 g/ha: 500 g ai/ha
Summary of the method: as §1

oat, wild [4] = experiment: Test A postemergence; assay type: in vivo, Avena fatua; settings: Avena fatua, post-emergence, 240 h, postemergence, 10 days, 0 to 100 scale (0 no effect, 100 complete control); for pest or weed control at 125 g/ha: 125 g ai/ha, read-out: Oat, Wild plant response rating; for pest or weed control at 500 g/ha: 500 g ai/ha, visual injury, read-out: Plant response rating, Oat, Wild
Summary of the method: as §1

horseweed = experiment: Test A postemergence; assay type: in vivo, Erigeron canadensis; settings: Erigeron canadensis, post-emergence, 240 h, postemergence, 10 days, 0 to 100 scale (0 no effect, 100 complete control); for pest or weed control at 125 g/ha: 125 g ai/ha, read-out: Horseweed plant response rating; for pest or weed control at 500 g/ha: 500 g ai/ha, visual injury, read-out: Plant response rating, Horseweed
Summary of the method: as §1

[5] = visual injury after 10 days, 0 to 100 scale, 0 is no effect, 100 is complete control
[6] = 0 to 100 scale (0 no effect, 100 complete control), 10 days

| Structure (SMILES) | plant injury at 125 g/ha (wheat [1]) [%] | plant injury at 500 g/ha (wheat [1]) [%] | plant injury at 125 g/ha (soybean) [%] | plant injury at 500 g/ha (soybean) [%] | pest or weed control at 125 g/ha (ryegrass, Italian; [5]) [%] | Corn plant response rating (crop injury, 0 = no effect, 100 = complete kill) at 125 g/ha (corn; [5]) [%] | pest or weed control at 125 g/ha (pigweed, palmer; [5]) [%] | pest or weed control at 125 g/ha (kochia; [5]) [%] | pest or weed control at 125 g/ha (ragweed) [%] | pest or weed control at 500 g/ha (ragweed) [%] | pest or weed control at 250 g/ha (ducksalad) [%] | pest or weed control at 125 g/ha (foxtail, giant; [5]) [%] | pest or weed control at 125 g/ha (oat, wild [2]; [5]) [%] | pest or weed control at 125 g/ha (blackgrass) [%] | pest or weed control at 500 g/ha (blackgrass) [%] | plant injury at 125 g/ha (wheat [3]; [5]) [%] | pest or weed control at 125 g/ha (oat, wild [4]) [%] | pest or weed control at 500 g/ha (oat, wild [4]) [%] | pest or weed control at 125 g/ha (horseweed) [%] | pest or weed control at 500 g/ha (horseweed) [%] | further results |
| --- | --- | --- | --- | --- | --- | --- | --- | --- | --- | --- | --- | --- | --- | --- | --- | --- | --- | --- | --- | --- | --- |
| Cc1cccc2c1O[C@@H](C)CN2C(=O)c1cccc(-n2cnc(C3COC3)n2)c1 [Compound 109, [(2S)-2,3-Dihydro-2,8-dimethyl-4H-1,4-benzoxazin-4-yl][3-[3-(3-oxetanyl)-1H-1,2,4-triazol-1-yl]phenyl]methanone] | 40 | 90 | 100 | 100 | 80 | 40 | 90 | 60 | 0 | 50 | 75 | 100 | 50 | 70 | 90 | 40 | 80 | 80 | 10 | 30 | pest or weed control at 500 g/ha (ryegrass, Italian; [6]): 100%; Corn plant response rating (crop injury, 0 = no effect, 100 = complete kill) at 500 g/ha (corn; [6]): 70%; pest or weed control at 500 g/ha (pigweed, palmer; [6]): 100%; pest or weed control at 500 g/ha (kochia; [6]): 90%; pest or weed control at 500 g/ha (foxtail, giant; [6]): 100%; pest or weed control at 500 g/ha (oat, wild [2]; [6]): 90%; plant injury at 500 g/ha (wheat [3]; [6]): 90% |
| Cc1cccc2c1O[C@@H](C)CN2C(=O)c1cccc(-n2cnn(C)c2=O)c1 [Compound 117, 4-[3-[[(2S)-2,3-Dihydro-2,8-dimethyl-4H-1,4-benzoxazin-4-yl]carbonyl]phenyl]-2,4-dihydro-2-methyl-3H-1,2,4-triazol-3-one] | 10 | 40 | 60 | 100 | 40 | 0 | 20 | 0 | 0 | 0 | 0 | 60 | 20 | 50 | 90 | 0 | 10 | 40 | 0 | 10 | pest or weed control at 500 g/ha (ryegrass, Italian; [5]): 100%; Corn plant response rating (crop injury, 0 = no effect, 100 = complete kill) at 500 g/ha (corn; [5]): 10%; pest or weed control at 500 g/ha (pigweed, palmer; [5]): 80%; pest or weed control at 500 g/ha (kochia; [5]): 60%; pest or weed control at 500 g/ha (foxtail, giant; [5]): 90%; pest or weed control at 500 g/ha (oat, wild [2]; [5]): 70%; plant injury at 500 g/ha (wheat [3]; [5]): 20% |
| Cc1cccc2c1O[C@@H](C)CN2C(=O)c1cccc(-n2cn[nH]c2=O)c1 [Compound 122, 4-[3-[[(2S)-2,3-Dihydro-2,8-dimethyl-4H-1,4-benzoxazin-4-yl]carbonyl]phenyl]-2,4-dihydro-3H-1,2,4-triazol-3-one] | 10 | 10 | 50 | 90 | 20 | 0 | 0 | 0 | 0 | 0 | 0 | 20 | 0 | 0 | 50 | 0 | 0 | 20 | 0 | 0 | pest or weed control at 500 g/ha (ryegrass, Italian; [5]): 70%; Corn plant response rating (crop injury, 0 = no effect, 100 = complete kill) at 500 g/ha (corn; [5]): 10%; pest or weed control at 500 g/ha (pigweed, palmer; [5]): 30%; pest or weed control at 500 g/ha (kochia; [5]): 10%; pest or weed control at 500 g/ha (foxtail, giant; [5]): 90%; pest or weed control at 500 g/ha (oat, wild [2]; [5]): 20%; plant injury at 500 g/ha (wheat [3]; [5]): 0% |
